Assay results reported in publication PMC8556085, “Antimicrobial and Antioxidant Secondary Metabolites from Trifolium baccarinii Chiov. (Fabaceae) and Their Mechanisms of Antibacterial Action” (BioMed Research International, 2021).
Marks after values point to notes of the source that are not given here.

What was measured:
[1] = Gallic acid equivalent antioxidant capacity (GEAC) assay; details: ABTS radical, 420 nm, 240 s; mean ± SD
In short: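 Purified Sclerotinia sclerotiorum laccase oxidises ABTS in acetate buffer pH 5.0 (100 mM); ABTS●+ read at 420 nm after 240 s. Samples at 10–800 μg/mL (extracts) or 12.5–200 μg/mL (isolated compounds) in assay. Values expressed as gallic acid equivalents from a 0–84 μM gallic acid calibration curve; triplicates, three repeats.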

[2] = test system: Pseudomonas aeruginosa ATCC27853; assay: Broth microdilution MIC/MMC; type: cell-based
In short: (§1)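 Twofold broth microdilution in MHB (bacteria) or SDB (yeasts), final range 2048–0.125 μg/mL. Inocula were 1 × 10^6 CFU/mL for bacteria, incubated at 37 °C for 24 h with shaking, and 1 × 10^5 spores/mL for yeasts (C. albicans 30 °C 48 h; C. neoformans 30 °C 72 h). MIC was the lowest concentration with no visible growth, in triplicate.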

[3] = test system: Cryptococcus neoformans H99; assay: Broth microdilution MIC/MMC; type: cell-based
In short: as §1

[4] = test system: methicillin-resistant Staphylococcus aureus 03 (MRSA03); assay: Broth microdilution MIC/MMC; type: cell-based
In short: as §1

Escherichia coli S2(1) = assay: Broth microdilution MIC/MMC; type: cell-based
In short: as §1

[5] = test system: Candida albicans ATCC10231; assay: Broth microdilution MIC/MMC; type: cell-based
In short: as §1

catalase = assay: Catalase activity in treated bacterial cell lysates; type: cell-based; details: Staphylococcus aureus ATCC25923 and MRSA03, MIC and 1/2xMIC, 24 h
Procedure: (3) Antioxidant Enzyme Activities. For evaluation of catalase and superoxide dismutase (SOD) activities, Staphylococcus aureus ATCC25923 and MRSA03 (1.5 × 10^8 CFU/mL, 500 μL) cultures from the late exponential growth phase were treated with MIC and 1/2xMIC of the methanol extract (500 μL), compound 5 (500 μL), and oxacillin (500 μL) solutions and incubated at 37°C for 24 h. The suspension was centrifuged at 3000 rpm for 5 min to separate the supernatant. The pellet was washed twice with PBS and resuspended in 500 μL of cell lysate buffer (1 mM EDTA, 10 Mm Tris-HCl, 0.1% Triton-X-100, and 150 mM NaCl) and incubated at 37°C for 1 h. Contents were then centrifuged at 3000 rpm for 5 min, and the supernatant was collected for enzyme activity assays.
Catalase activity. This was assessed by using a kit (Sigma, catalogue no. CAT100) with a cell lysate. Briefly, 750 μL of assay buffer (50 mM) was mixed with 25 μL of 50 mM H2O2 and 10 μL of cell lysate. […] The absorbance was monitored at 520 nm, and the catalase activity was calculated based on the following equation: [Δμ moles (H2O2) × d × 100)/V × t], where Δμ moles (H2O2) is the difference in amount of H2O2 added to the reaction mixture between blank and given samples, d is the dilution of the original sample for catalase reaction, V is the sample volume in catalase reaction, and t is the reaction duration (min).

[6] = Pseudomonas aeruginosa ATCC27853

4,7,2′-trihydroxy-4′-methoxyisoflavanol [compound 5]
Gallic acid equivalent antioxidant capacity (GEAC) [1]: 61.05 ± 0.90^h μg/mL
MMC [2, 6]: 8 µg/mL
MMC/MIC [2, 6]: 1
MIC ([2]; Pseudomonas aeruginosa ATCC27853, 24 h, 37°C): 8 µg/mL
MMC ([3]; Cryptococcus neoformans H99): 8 µg/mL
MMC/MIC ([3]; Cryptococcus neoformans H99): 1
MIC ([3]; Cryptococcus neoformans H99, 72 h, 30°C): 8 µg/mL
MMC ([4]; MRSA03): 32 µg/mL
MMC/MIC ([4]; MRSA03): 2
MIC ([4]; MRSA03, 24 h, 37°C): 16 µg/mL
MMC (Escherichia coli S2(1)): 16 µg/mL
MMC/MIC (Escherichia coli S2(1)): 2
MIC (Escherichia coli S2(1); 24 h, 37°C): 8 µg/mL
MMC ([5]; Candida albicans ATCC10231): 16 µg/mL
MMC/MIC ([5]; Candida albicans ATCC10231): 2
MIC ([5]; Candida albicans ATCC10231, 48 h, 30°C): 8 µg/mL
catalase activity vs untreated cell lysates (catalase): significant concentration-dependent decreases
